Test results: patent publication US20230085307A1, “PYRIDAZINONE COMPOUND AND HERBICIDE” (NISSAN CHEMICAL CORPORATION, priority 2019, published 2023)

Assays:
[1] = test system: green foxtail; assay: Test Example 5: herbicidal effect by foliage application, plastic box (Table 20, symbol G); format: in vivo, green foxtail (Setaria viridis); conditions: foliage application, 320 g/ha, evaluated three weeks after application
Method in brief: (§1)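 Plants sown in sterilized diluvial soil and grown 14 days in a greenhouse at 25° C to 30° C, then sprayed on the foliage with the compound's emulsion diluted in water to a predetermined herbicide amount. Injury to weeds and crops scored three weeks after application on a visual rating scale.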

[2] = test system: green foxtail; assay: Test Example 4: herbicidal effect by soil treatment (Table 19, symbol G); format: in vivo, green foxtail (Setaria viridis)
Method in brief: (§2)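 Seeds were sown in sterilized diluvial soil and covered with about 1.5 cm of soil. An emulsion formulation diluted with water to a predetermined herbicide amount was sprayed evenly onto the soil surface. Plants grew in a greenhouse at 25° C. to 30° C., and the effect was scored three weeks after application using criteria from an earlier test.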

[3] = test system: velvetleaf; assay: Test Example 5: herbicidal effect by foliage application, plastic box (Table 20, symbol M); format: in vivo, velvetleaf (Abutilon theophrasti); conditions: foliage application, 320 g/ha, evaluated three weeks after application
Method in brief: as §1

[4] = test system: blackgrass; assay: Test Example 5: herbicidal effect by foliage application, plastic box (Table 20, symbol J); format: in vivo, blackgrass (Alopecurus myosuroides); conditions: foliage application, 320 g/ha, evaluated three weeks after application
Method in brief: as §1

[5] = test system: southern crabgrass; assay: Test Example 4: herbicidal effect by soil treatment (Table 19, symbol F); format: in vivo, southern crabgrass (Digitaria ciliaris)
Method in brief: as §2

[6] = test system: windgrass; assay: Test Example 4: herbicidal effect by soil treatment (Table 19, symbol L); format: in vivo, windgrass (Apera spica-venti)
Method in brief: as §2

[7] = test system: barnyard grass; assay: Test Example 4: herbicidal effect by soil treatment (Table 19, symbol H); format: in vivo, barnyard grass (Echinochloa crus-galli)
Method in brief: as §2

[8] = test system: redroot pigweed; assay: Test Example 5: herbicidal effect by foliage application, plastic box (Table 20, symbol N); format: in vivo, redroot pigweed (Amaranthus retroflexus); conditions: foliage application, 320 g/ha, evaluated three weeks after application
Method in brief: as §1

[9] = test system: wild oat; assay: Test Example 5: herbicidal effect by foliage application, plastic box (Table 20, symbol I); format: in vivo, wild oat (Avena fatua); conditions: foliage application, 320 g/ha, evaluated three weeks after application
Method in brief: as §1

[10] = test system: redroot pigweed; assay: Test Example 4: herbicidal effect by soil treatment (Table 19, symbol N); format: in vivo, redroot pigweed (Amaranthus retroflexus)
Method in brief: as §2

[11] = test system: Italian ryegrass; assay: Test Example 4: herbicidal effect by soil treatment (Table 19, symbol K); format: in vivo, Italian ryegrass (Lolium multiflorum)
Method in brief: as §2

[12] = test system: chickweed; assay: Test Example 4: herbicidal effect by soil treatment (Table 19, symbol P); format: in vivo, common chickweed (Stellaria media)
Method in brief: as §2

[13] = test system: lambsquarters; assay: Test Example 4: herbicidal effect by soil treatment (Table 19, symbol O); format: in vivo, lambsquarters (Chenopodium album)
Method in brief: as §2

[14] = test system: barnyard grass; assay: Test Example 5: herbicidal effect by foliage application, plastic box (Table 20, symbol H); format: in vivo, barnyard grass (Echinochloa crus-galli); conditions: foliage application, 320 g/ha, evaluated three weeks after application
Method in brief: as §1

[15] = test system: Chinese sprangletop; assay: Test Example 3: herbicidal effect by foliage application, Wagner pot (Table 18, symbol D); format: in vivo, chinese sprangletop (Leptochloa chinensis)
Method in brief: (§3)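 Plants were sown in alluvial soil held under 0.1–0.5 cm standing water and grown 14 days in a greenhouse at 25–30 °C. An emulsifiable formulation, water-diluted to the set dose, was then sprayed onto the foliage, and effects were scored three weeks later using previously defined criteria.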

[16] = test system: velvetleaf; assay: Test Example 4: herbicidal effect by soil treatment (Table 19, symbol M); format: in vivo, velvetleaf (Abutilon theophrasti)
Method in brief: as §2

[17] = test system: Italian ryegrass; assay: Test Example 5: herbicidal effect by foliage application, plastic box (Table 20, symbol K); format: in vivo, Italian ryegrass (Lolium multiflorum); conditions: foliage application, 320 g/ha, evaluated three weeks after application
Method in brief: as §1

[18] = test system: windgrass; assay: Test Example 5: herbicidal effect by foliage application, plastic box (Table 20, symbol L); format: in vivo, windgrass (Apera spica-venti); conditions: foliage application, 320 g/ha, evaluated three weeks after application
Method in brief: as §1

[19] = test system: lambsquarters; assay: Test Example 5: herbicidal effect by foliage application, plastic box (Table 20, symbol O); format: in vivo, lambsquarters (Chenopodium album); conditions: foliage application, 320 g/ha, evaluated three weeks after application
Method in brief: as §1

[20] = test system: persian speedwell; assay: Test Example 4: herbicidal effect by soil treatment (Table 19, symbol R); format: in vivo, Persian speedwell (Veronica persica)
Method in brief: as §2

[21] = test system: barnyard grass; assay: Test Example 3: herbicidal effect by foliage application, Wagner pot (Table 18, symbol H); format: in vivo, barnyard grass (Echinochloa crus-galli)
Method in brief: as §3

[22] = test system: rice flat sedge; assay: Test Example 3: herbicidal effect by foliage application, Wagner pot (Table 18, symbol E); format: in vivo, rice flat sedge (Cyperus iria)
Method in brief: as §3

[23] = test system: southern crabgrass; assay: Test Example 5: herbicidal effect by foliage application, plastic box (Table 20, symbol F); format: in vivo, southern crabgrass (Digitaria ciliaris); conditions: foliage application, 320 g/ha, evaluated three weeks after application
Method in brief: as §1

[24] = test system: wild oat; assay: Test Example 4: herbicidal effect by soil treatment (Table 19, symbol I); format: in vivo, wild oat (Avena fatua)
Method in brief: as §2

[25] = test system: chickweed; assay: Test Example 5: herbicidal effect by foliage application, plastic box (Table 20, symbol P); format: in vivo, common chickweed (Stellaria media); conditions: foliage application, 320 g/ha, evaluated three weeks after application
Method in brief: as §1

[26] = test system: blackgrass; assay: Test Example 4: herbicidal effect by soil treatment (Table 19, symbol J); format: in vivo, blackgrass (Alopecurus myosuroides)
Method in brief: as §2

[27] = test system: persian speedwell; assay: Test Example 5: herbicidal effect by foliage application, plastic box (Table 20, symbol R); format: in vivo, Persian speedwell (Veronica persica); conditions: foliage application, 320 g/ha, evaluated three weeks after application
Method in brief: as §1

[28] = amount of applied herbicide 320 g/ha

Cc1nn(C)c(=O)c(-c2c(-c3ccc(Cl)cc3)sc3ccc(Cl)cc23)c1O [2-099]
herbicidal effect on G: green foxtail [1]: 5 (Herbicidal rate of 90% or more (almost completely withered))
herbicidal effect rating, G: green foxtail ([2]; 320 g/ha): 2 (Herbicidal rate of 20% or more and less than 40%)
herbicidal effect on M: velvetleaf [3]: 5 (Herbicidal rate of 90% or more (almost completely withered))
herbicidal effect on J: blackgrass [4]: 4 (Herbicidal rate of 70% or more and less than 90%)
herbicidal effect rating, F: southern crabgrass ([5]; 320 g/ha): 0 (Herbicidal rate of 5% or less (almost no effect))
herbicidal effect rating, L: windgrass ([6]; 320 g/ha): 4 (Herbicidal rate of 70% or more and less than 90%)
herbicidal effect rating, H: barnyard grass ([7]; 320 g/ha): 0 (Herbicidal rate of 5% or less (almost no effect))
herbicidal effect on N: redroot pigweed [8]: 5 (Herbicidal rate of 90% or more (almost completely withered))
herbicidal effect on I: wild oat [9]: 5 (Herbicidal rate of 90% or more (almost completely withered))
herbicidal effect rating, N: redroot pigweed ([10]; 320 g/ha): 3 (Herbicidal rate of 40% or more and less than 70%)
herbicidal effect rating, K: Italian ryegrass ([11]; 320 g/ha): 5 (Herbicidal rate of 90% or more (almost completely withered))
herbicidal effect rating, P: chickweed ([12]; 320 g/ha): 4 (Herbicidal rate of 70% or more and less than 90%)
herbicidal effect rating, O: lambsquarters ([13]; 320 g/ha): 3 (Herbicidal rate of 40% or more and less than 70%)
herbicidal effect on H: barnyard grass [14]: 5 (Herbicidal rate of 90% or more (almost completely withered))
herbicidal effect on D (Chinese sprangletop), rating 0-5 ([15]; 320 g/ha): 4 (Herbicidal rate of 70% or more and less than 90%)
herbicidal effect rating, M: velvetleaf ([16]; 320 g/ha): 0 (Herbicidal rate of 5% or less (almost no effect))
herbicidal effect on K: Italian ryegrass [17]: 5 (Herbicidal rate of 90% or more (almost completely withered))
herbicidal effect on L: windgrass [18]: 5 (Herbicidal rate of 90% or more (almost completely withered))
herbicidal effect on O: lambsquarters [19]: 5 (Herbicidal rate of 90% or more (almost completely withered))
herbicidal effect rating, R: persian speedwell ([20]; 320 g/ha): 1 (Herbicidal rate of 5% or more and less than 20%)
herbicidal effect on H (barnyard grass), rating 0-5 ([21]; 320 g/ha): 5 (Herbicidal rate of 90% or more (almost completely withered))
herbicidal effect on E (rice flat sedge), rating 0-5 ([22]; 320 g/ha): 5 (Herbicidal rate of 90% or more (almost completely withered))
herbicidal effect on F: southern crabgrass [23]: 5 (Herbicidal rate of 90% or more (almost completely withered))
herbicidal effect rating, I: wild oat ([24]; 320 g/ha): 0 (Herbicidal rate of 5% or less (almost no effect))
herbicidal effect on P: chickweed [25]: 5 (Herbicidal rate of 90% or more (almost completely withered))
herbicidal effect rating, J: blackgrass ([26]; 320 g/ha): 2 (Herbicidal rate of 20% or more and less than 40%)
herbicidal effect on R: persian speedwell [27]: 5 (Herbicidal rate of 90% or more (almost completely withered))

CCCC(=O)Oc1c(C)nn(C)c(=O)c1-c1c(-c2ccc(F)cc2)sc2ccc(C)cc12 [2-135]
herbicidal effect on G: green foxtail [1]: 0 (Herbicidal rate of 5% or less (almost no effect))
G: green foxtail, herbicidal effect rating [2, 28]: 0 (Herbicidal rate of 5% or less (almost no effect))
herbicidal effect on M: velvetleaf [3]: 4 (Herbicidal rate of 70% or more and less than 90%)
herbicidal effect on J: blackgrass [4]: 0 (Herbicidal rate of 5% or less (almost no effect))
F: southern crabgrass, herbicidal effect rating [5, 28]: 0 (Herbicidal rate of 5% or less (almost no effect))
L: windgrass, herbicidal effect rating [6, 28]: 0 (Herbicidal rate of 5% or less (almost no effect))
H: barnyard grass, herbicidal effect rating [7, 28]: 0 (Herbicidal rate of 5% or less (almost no effect))
herbicidal effect on N: redroot pigweed [8]: 5 (Herbicidal rate of 90% or more (almost completely withered))
herbicidal effect on I: wild oat [9]: 0 (Herbicidal rate of 5% or less (almost no effect))
N: redroot pigweed, herbicidal effect rating [10, 28]: 0 (Herbicidal rate of 5% or less (almost no effect))
K: Italian ryegrass, herbicidal effect rating [11, 28]: 1 (Herbicidal rate of 5% or more and less than 20%)
P: chickweed, herbicidal effect rating [12, 28]: 3 (Herbicidal rate of 40% or more and less than 70%)
O: lambsquarters, herbicidal effect rating [13, 28]: 0 (Herbicidal rate of 5% or less (almost no effect))
herbicidal effect on H: barnyard grass [14]: 0 (Herbicidal rate of 5% or less (almost no effect))
herbicidal effect on D: Chinese sprangletop [15, 28]: 0 (Herbicidal rate of 5% or less (almost no effect))
M: velvetleaf, herbicidal effect rating [16, 28]: 0 (Herbicidal rate of 5% or less (almost no effect))
herbicidal effect on K: Italian ryegrass [17]: 3 (Herbicidal rate of 40% or more and less than 70%)
herbicidal effect on L: windgrass [18]: 0 (Herbicidal rate of 5% or less (almost no effect))
herbicidal effect on O: lambsquarters [19]: 3 (Herbicidal rate of 40% or more and less than 70%)
R: persian speedwell, herbicidal effect rating [20, 28]: 0 (Herbicidal rate of 5% or less (almost no effect))
herbicidal effect on H: barnyard grass [21, 28]: 1 (Herbicidal rate of 5% or more and less than 20%)
herbicidal effect on E: rice flat sedge [22, 28]: 3 (Herbicidal rate of 40% or more and less than 70%)
herbicidal effect on F: southern crabgrass [23]: 0 (Herbicidal rate of 5% or less (almost no effect))
I: wild oat, herbicidal effect rating [24, 28]: 0 (Herbicidal rate of 5% or less (almost no effect))
herbicidal effect on P: chickweed [25]: 5 (Herbicidal rate of 90% or more (almost completely withered))
J: blackgrass, herbicidal effect rating [26, 28]: 0 (Herbicidal rate of 5% or less (almost no effect))
herbicidal effect on R: persian speedwell [27]: 1 (Herbicidal rate of 5% or more and less than 20%)
